Earlier results, collected in patent US20240016816A1, “COMBINATION THERAPY” (priority 2017, published 2024).

Tests used:
eyelashes = conditions: patients using ophthalmic prostaglandins
hair loss = conditions: clinical trials

SMILES: CC(C)OC(=O)CCC/C=C\C[C@@H]1[C@@H](/C=C/[C@@H](O)COc2cccc(C(F)(F)F)c2)[C@H](O)C[C@@H]1O [travoprost]
- effect on eyelashes (eyelashes): increase in diameter, density and length of eyelashes

SMILES: CC(C)OC(=O)CCC/C=C\C[C@@H]1[C@@H](CC[C@@H](O)CCc2ccccc2)[C@H](O)C[C@@H]1O [latanoprost]
- effect on eyelashes (eyelashes): increase in diameter, density and length of eyelashes

SMILES: CCNC(=O)CCC/C=C\C[C@@H]1[C@@H](/C=C/[C@@H](O)CCc2ccccc2)[C@H](O)C[C@@H]1O [Bimatoprost, bimatoprost]
- effect on eyelashes (eyelashes): significantly increase eyelash length

SMILES: CC(C)(C)NC(=O)[C@H]1CC[C@H]2[C@@H]3CC[C@H]4NC(=O)C=C[C@]4(C)[C@H]3CC[C@]12C [finasteride]
- efficacy, monotherapy comparison minoxidil vs finasteride (hair loss): the more efficacious treatment option
